# US10857105B2, “Compounds and compositions for intracellular delivery of therapeutic agents” (ModernaTX, Inc., priority 2017, dated 2020)
# Assays:
# [1] = tested on: modified luciferase; assay: Luciferase expression in liver, lung, spleen and femur 6 hours after intravenous administration to mice; assay type: in vivo; settings: 6 hours after intravenous 0.5 mpk, mice
# Procedure, shortened: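 Mice (n=3) got a single 0.5 mpk IV dose of each nanoparticle composition, with MC3 and PBS controls alongside. Organ luminescence flux was read 6 h post-dose.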
# [2] = tested on: hEPO mRNA; assay: hEPO expression and cytokine induction after intravenous administration to mice; assay type: in vivo; settings: mice
# Experimental: FIG. 17 is a graph showing the hEPO mRNA expression in CD1-mice measured 3 h (left block), 6 h (middle block) and 24 h (right block) after intravenous administration of various nanoparticle compositions. Numbers 1-13 refer to compositions containing an mRNA expressing hEPO and the following: 1: Compound 147, 2: Compound 184, 3: Compound 232; 4: Compound 189; 5: Compound 200; 6: Compound 233; 7: Compound 234; 8: Compound 235; 9: Compound 237; 10: Compound 239; 11: Compound 243; 12: MC3; 13: PBS. […]
# Sample formulations of nanoparticle compositions including different lipids are generally first evaluated according to Luc expression in vivo. The activity of several such compositions was further evaluated using an mRNA encoding hEPO. Nanoparticle compositions including Compounds 6, 18, 25, 30, 108-112, 60, and 122, or MC3 were prepared according to Example 2.
# (§1) The expression of hEPO and cytokine induction in mice intravenously administered a nanoparticle composition at a dose of 0.5 mpk were measured at 3, 6, and 24 hours. […] The expression of hEPO in mice intramuscularly administered a nanoparticle composition from Table 1B at a dose of 0.01 mpk were measured at 3, 6, and 24 hours. […] (see
# Table 12 compares the nanoparticle compositions including compounds according to Formula (I), (IA), (IB), (II), (IIa), (IIb), (IIc), (IId), (IIe), (IIf), (IIg), or (III) to the compositions including MC3 on the basis of expression and flux levels. […] Thus, these lipids may be useful in nanoparticle composition therapeutics.
# [3] = tested on: CD-1 mice; assay: Luciferase expression after intravenous delivery of luciferase mRNA LNPs (bioluminescent imaging); assay type: in vivo; settings: intravenous 0.5 mg/kg mRNA dose
# Experimental: Whole body and ex vivo organ bioluminescent imaging of mice: CD-1 mice were injected 15 minutes prior to the imaging timepoint intraperitoneally (IP) with 200 μL Xenolight D-luciferin K+ salt, diluted in PBS just prior to use to a concentration of 15 mg/mL. Ex vivo imaging of organs was completed, within 25 minutes of luciferin administration. All images were quantified by region of interest for total flux.
# […] […] (See Semple, S.C. et al., Nature Biotech. 2010. 28, 172-176, Jayaraman, M., et al. Angew. Chem. Int. Ed. 2012, 51, 8529-8533, the entire contents of each of which are incorporated by reference herein in their entireties). To evaluate the efficiency of the new amino lipids, LNPs using the novel compounds were tested in vivo in mice using luciferase mRNA as a reporter. An MC3 LNP was included as a control in each experiment, enabling the comparison of LNPs from experiment to experiment. Measured luciferase activity also enabled the determination of protein bio-distribution.
# [4] = Chemical stability of lipids in ethanol at room temperature and 37° C. (lipid purity); assay type: physicochemical
# Experimental: Ester linkages were previously reported to trigger metabolism by esterases in vivo. (See Fukami, T. et al. Drug Metab. Pharmacokinet. 2012, 27, 466-477, the content of which is incorporated by reference herein in its entirety). […] (See Maier M. A., Mol. Ther. 2013, 21, 1570-1578, the content of which is incorporated herein in its entirety) First, the chemical stability of the lipids was evaluated by measuring ethanol stability at room temperature and 37° C. (Table 39). […] LNPs formed with compound 138 were larger, with a surface pKa>7. […] Removal of one ester function (compound 136) afforded LNPs with improved physiochemical characteristics and lower LNP surface pKa.
# [5] = tested on: IL-6, IP-10; assay: Cytokine induction (IL-6, IP-10) in mice 6 hours after intravenous administration; assay type: in vivo; design: unit not given here; settings: intravenous 0.5 mpk
# Procedure, shortened: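 IL-6 and IP-10 concentrations determined 6 hours after a single intravenous 0.5 mpk dose of lipid nanoparticle formulation in mice, with MC3 and PBS as comparators.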
# [6] = tested on: luciferase (Luc) mRNA; assay: Luciferase expression (whole body bioluminescence) after intravenous administration to mice; assay type: in vivo; settings: intravenous, luciferase; for Novel lipid/MC3 ratio, i.v.: Table 3G, 6 hr. timepoint, relative to MC3; for Novel lipid/MC3 expression ratio, i.v.: 6 hr. time point, relative to MC3 formulation
# Procedure, shortened: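 Luc mRNA nanoparticles were given IV at 0.5 mg/kg to groups of six mice, and whole-body bioluminescent flux was imaged 3, 6 and 24 h post-dose. Flux AUC for each lipid formulation was reported as a ratio to the MC3 reference formulation.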
# [7] = tested on: modified luciferase (Luc) mRNA and H10 mRNA; assay: Expression after intramuscular administration of formulations including Luc mRNA and H10 mRNA; assay type: in vivo
# Experimental: Sample formulations including both modified luciferase (Luc) mRNA and H10 mRNA were prepared and administered intramuscularly and the resulting expression and immunogenicity were evaluated simultaneously. Formulations including compounds according to Formula (I), (IA), (IB), (II), (IIa), (IIb), (IIc), (IId), (IIe), (IIf), (IIg), or (III) were prepared and administered at doses of 0.001 and 0.01 mpk (e.g., doses of 0.0005 mpk of a formulation including Luc mRNA and a formulation including H10 mRNA or doses of 0.005 mpk of a formulation including Luc mRNA and a formulation including H10 mRNA).
# The fluxes measured upon intravenous and intramuscular administration are compared in Table 6. Fluxes are presented as fold increase over that measured for MC3 formulations.
# [8] = Particle size and polydispersity index of nanoparticle compositions (Zetasizer Nano ZS); assay type: physicochemical
# Procedure, shortened: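 Formulations of ionizable lipid, DSPC, cholesterol and PEG-DMG (50:10:38.5:1.5 mol %) carrying Luc or hEPO mRNA with all uridines as N1-methyl pseudouridine. Dynamic light scattering in 1×PBS gave particle size and polydispersity; zeta potential read in 15 mM PBS.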
# [9] = Encapsulation efficiency of RNA in nanoparticle compositions (RIBOGREEN assay); assay type: physicochemical
# Procedure, shortened: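 Lipid nanoparticles (ionisable lipid:DSPC:cholesterol:PEG-DMG 50:10:38.5:1.5 mol %) carrying N1-methylpseudouridine luciferase or hEPO mRNA diluted to about 5 μg/mL in TE, pH 7.5, with or without 2% Triton X-100, 15 min at 37° C. RiboGreen fluorescence (ex ~480, em ~520 nm) blank-subtracted; free RNA = intact/disrupted signal.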
# [10] = tested on: luciferase (Luc) mRNA; assay: Luciferase expression after intramuscular administration to mice; assay type: in vivo; settings: intramuscular; for Total flux 6 hours after intramuscular administration, 0.01 mpk Dose: Luc mRNA
# Procedure, shortened: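 CD-1 mice received lipid nanoparticle formulations of modified luciferase mRNA intramuscularly at 0.01 mpk. Bioluminescence total flux was measured, including at 6 h, and AUC was expressed relative to MC3 formulations. Immunogenicity was assessed in parallel.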
# [11] = tested on: hEPO mRNA; assay: hEPO expression after intramuscular administration to mice; assay type: in vivo; settings: intramuscular, hEPO; for Novel lipid/MC3 ratio, i.m. hEPO: Table 3G, 6 hr. timepoint, relative to MC3
# Experimental: The numbers 1-11 in this figure correspond to MC3, Compounds 18, 25, 30, 108-112, 60, and 122 respectively.
# as §1
# [12] = Table 1A, lipid:DSPC:cholesterol:PEG-DMG 50:10:38.5:1.5 mol %
# [13] = Table 1C, compositions for subcutaneous administration
# [14] = Table 1B, formulated with hEPO mRNA
SMILES,"Total Flux, Femur [1]","Total Flux, Liver [1]","Total Flux, Lung [1]","Total Flux, Spleen [1]","Cytokine induction, IL-6 [5]","Cytokine induction, IP-10 [5]","Novel lipid/MC3 ratio, i.v. [6]","Novel lipid/MC3 expression ratio, i.v. [6]","Size [8, 12] [nm]","Size [8, 13] [nm]","EE [9, 12] [%]","Total flux 6 hours after intramuscular administration, 0.01 mpk Dose [10] [p/s]","Size [8, 14] [nm]","Novel lipid/MC3 ratio, i.m. hEPO [11]","EE [9, 14] [%]",further results
"CCCCC/C=C\C/C=C\CCCCCCCCN(CCO)CCCCCCCC(=O)OC(CCCCCCCC)CCCCCCCC [Compound 6, Heptadecan-9-yl 8-((2-hydroxyethyl)((9Z,12Z)-octadeca-9,12-dien-1-yl)amino)octanoate]",2.15E+06,1.09E+09,4.30E+06,3.03E+07,136.18,316.01,,,,,,,,,,"hEPO expression, 3 h ([2]; intravenous 0.5 mpk, 3 h): 2.31e+06 pg/mL; Cytokine expression, IL-6 (6 h) ([2]; intravenous 0.5 mpk, 6 h): 10.15 pg/mL; Cytokine expression, IP-10 (6 h) ([2]; intravenous 0.5 mpk, 6 h): 116.66 pg/mL; hEPO expression, 6 h ([2]; intravenous 0.5 mpk, 6 h): 3.17e+06 pg/mL; hEPO expression, 24 h ([2]; intravenous 0.5 mpk, 24 h): 1.11e+06 pg/mL; hEPO concentrations compared with MC3 formulations ([2]; intravenous, 0.5 mpk, 3, 6 and 24 hours): higher hEPO concentrations than MC3 formulations at each time point; luciferase activity/expression compared to MC3 LNP control (words) [3]: Equivalent expression to MC3 LNPs; Lipid Purity, t = 96 h, 25° C. ([4]; 96 h, 25° C.): 93.21%; Lipid Purity, t = 96 h, 37° C. ([4]; 96 h, 37° C.): 94.29%; Lipid Purity, t = 0 ([4]; t = 0): 93.80%"
"CCCCCCCCCOC(=O)CCCCCCCN(CCCCO)CCCCCCCC(=O)OC(CCCCCCCC)CCCCCCCC [Compound 20, Heptadecan-9-yl 8-((4-hydroxybutyl)(8-(nonyloxy)-8-oxooctyl)amino) octanoate]",1.31E+07,1.84E+09,2.66E+07,1.43E+08,126.83,2468.24,0.80,0.80,86.7,86.7,96.72,,,,,"Expression upon intramuscular administration ([7]; doses of 0.001 and 0.01 mpk, 6 hours): highest expression at both dose levels; Fold increase in Luc expression over MC3 upon intramuscular administration ([7]; intramuscular): highest fold increase"
"CCCCCCCCCOC(=O)CCCCCCCN(CCCCCCCC(=O)OC(CCCCCCCC)CCCCCCCC)CCCNC(=O)N(C)C [Compound 110, Heptadecan-9-yl 8-((3-(3,3-dimethylureido)propyl)(8-(nonyloxy)-8-oxooctyl)amino)octanoate]",,2.30E+08,5.76E+06,1.41E+08,,,0.19,0.19,91.5,91.5,,1.21E+08,73.3,1.2,92.39,
"CCCCCCCCCOC(=O)CCCCCCCN(CCCCCCCC(=O)OC(CCCCCCCC)CCCCCCCC)CCCNC(=O)NC [Compound 112, Heptadecan-9-yl 8-((3-(3-methylureido)propyl)(8-(nonyloxy)-8-oxooctyl)amino)octanoate]",,1.48E+08,1.83E+06,2.75E+07,,,0.08,0.08,83.7,83.7,,9.47E+07,60.6,1.6,96.40,
"CCCCCCCCCOC(=O)CCCCCCCN(CCCCCCCC(=O)OC(CCCCCCCC)CCCCCCCC)CCCN/C(=N/C#N)N(C)C [Compound 168, Heptadecan-9-yl (Z)-8-((3-(2-cyano-3,3-dimethylguanidino)propyl)(8-(nonyloxy)-8-oxooctyl)amino)octanoate]",,,,,,,,0.11,102.3,,91.4,,,,,"Novel lipid/MC3 expression ratio, i.m. Luc ([10]; luciferase, 6 hr. time point, relative to MC3 formulation): 16.0; Size ([8]; Table 1D, compositions for subcutaneous administration, # formulated with hEPO mRNA): 87.4 nm; Size ([8]; Table 1E, compositions for subcutaneous administration): 85.0 nm; Novel lipid/MC3 expression ratio, i.m. hEPO ([11]; 6 hr. time point, relative to MC3 formulation): 6.3"
